Results: patent publication US20130065756A1, “SPIROHETEROCYCLIC DIONE DERIVATIVES USED AS PESTICIDES” (SYNGENTA CROP PROTECTION LLC, priority 2009, published 2013)
Like-named read-outs stand apart in the source and are kept apart here.

Columns and labels:
[1] = tested on: Myzus persicae (green peach aphid); experiment: Example B9: Myzus persicae on pepper or cabbage plants, feeding/residual contact activity; assay type: in vivo; conditions: 144 h, 6 days, read-out: activity against Myzus persicae (mortality)
cabbage plants = conditions: in vivo, 6 days, 200 ppm
Method: (§1) (Mixed Population, Feeding/Residual Contact Activity, Plant Damage Evaluation)
(§2) Pepper [P] or cabbage […] plants infested with a mixed population of Myzus persicae are treated with diluted test solutions of the compounds in a spray chamber. 6 days after treatment, samples are checked for mortality and for plant damage (phytotoxicity), visual assessment being made using a 0-100% rating scale (100%=total damage to plant; 0%=no damage to plant).

[2] = tested on: Myzus persicae (green peach aphid); experiment: Example B2: Myzus persicae, mixed population, systemic/feeding activity, curative; conditions: 144 h, read-out: activity (mortality)
[3] = tested on: Myzus persicae (green peach aphid); experiment: Example B1: Myzus persicae, mixed population, feeding/residual contact activity, preventive; assay type: in vivo; conditions: foliar, 144 h, sprayed sunflower leaf discs, 6 days
[4] = tested on: Tetranychus urticae (two-spotted spider mite); experiment: Example B4: Tetranychus urticae, mixed population, feeding/residual contact activity, preventive; conditions: foliar, 192 h, read-out: activity (egg, larval and adult mortality)
pepper plants = conditions: in vivo, 6 days, 200 ppm
Method: as §1, §2

[5] = tested on: Aphis Craccivora (cowpea aphid); experiment: Example B7: translaminar activity against Aphis craccivora; assay type: in vivo; conditions: 120 h, upper side of French bean leaves painted, 5 days
Method: Translaminar Activity Against Aphis Craccivora (Cowpea Aphid)
French bean leaves (Phaseolus vulgaris) are infested with about 20 mixed age individuals on the lower leaf side using clip cages. 1 day after the infestation, the upper side of the leaves is treated with the test solution by painting. 5 days later, samples are checked for mortality.

[6] = tested on: Myzus persicae (green peach aphid); experiment: Example B8: drench activity against Myzus persicae; conditions: soil, 168 h, read-out: activity (mortality), drench
[7] = tested on: Nilaparvata lugens (brown rice planthopper); experiment: Example B6: Nilaparvata lugens, larvicide, feeding/contact; conditions: in Oryza sativa, read-out: activity (mortality, growth regulation, effects on F1 generation)
[8] = tested on: Thrips tabaci (onion thrips); experiment: Example B3: Thrips tabaci, mixed population, feeding/residual contact activity, preventive; conditions: foliar, 144 h, read-out: activity (mortality)

Question: Which mortality at 200 ppm ([1]; cabbage [C] plants sprayed) does the source give for `CON1CCC2(CC1)C(O)=C(c1cc(C)ccc1C)C(=O)N2N1CCOCC1` [B5] here?
Answer: ≥ 80%

Question: What about the “damage to cabbage plants (phytotoxicity)” value (cabbage plants) of the same compound?
Answer: ≤ 10%

Question: What about the mortality at 400 ppm [2] of the same compound?
Answer: > 80%

Question: Which results are given for `CON1CCC2(CC1)C(O)=C(c1c(C)cc(Cl)cc1C)C(=O)N2N1CCOCC1` [B3]?
Answer: mortality at 400 ppm [3]: > 80%; mortality at 200 ppm ([1]; cabbage [C] plants sprayed): ≥ 80%; damage to cabbage plants (phytotoxicity) (cabbage plants): ≤ 10%; mortality at 400 ppm [2]: > 80%; mortality at 400 ppm [4]: > 80%

Question: What does the source list for `CON1CCC2(CC1)C(O)=C(c1c(C)cc(C)cc1C)C(=O)N2N1CCOCC1` [B1]?
Answer: mortality at 400 ppm [3]: > 80%; mortality at 200 ppm ([1]; cabbage [C] plants sprayed): ≥ 80%; damage to cabbage plants (phytotoxicity) (cabbage plants): ≤ 10%; mortality at 400 ppm [2]: > 80%; mortality at 400 ppm [4]: > 80%

Question: Which mortality at 400 ppm [3] does the source give for `CCOC(=O)OC1=C(c2c(C)cc(Cl)cc2C)C(=O)N(N(C)C)C12CCN(OC)CC2` [A4] here?
Answer: > 80%

Question: What about the mortality at 200 ppm ([1]; pepper [P] plants sprayed) of the same compound?
Answer: ≥ 80%

Question: And the “damage to pepper plants (phytotoxicity)” value (pepper plants)?
Answer: ≤ 10%

Question: And the mortality at 400 ppm [2]?
Answer: > 80%

Question: What about the mortality at 400 ppm [4] of the same compound?
Answer: > 80%

Question: What does the source list for `CCOC(=O)OC1=C(c2c(C)cc(C)cc2C)C(=O)N(N(C)C)C12CCN(OC)CC2` [A2, Carbonic acid 1-dimethylamino-8-methoxy-2-oxo-3-(2,4,6-trimethyl-phenyl)-1,8-diaza-spiro[4.5]dec-3-en-4-yl ester ethyl ester]?
Answer: mortality at 400 ppm [5]: > 80%; mortality at 200 ppm ([1]; pepper [P] plants sprayed): ≥ 80%; damage to pepper plants (phytotoxicity) (pepper plants): ≤ 10%; mortality at 25 ppm [6]: > 80%; mortality at 400 ppm [7]: > 80%; mortality at 400 ppm [2]: > 80%; mortality at 400 ppm [4]: > 80%

Question: Which results are given for `CCOC(=O)OC1=C(c2c(C)cc(Cl)cc2C)C(=O)N(N2CCOCC2)C12CCN(OC)CC2` [B4]?
Answer: mortality at 400 ppm [3]: > 80%; mortality at 200 ppm ([1]; cabbage [C] plants sprayed): ≥ 80%; damage to cabbage plants (phytotoxicity) (cabbage plants): ≤ 10%; mortality at 400 ppm [2]: > 80%; mortality at 400 ppm [4]: > 80%

Question: With `CON1CCC2(CC1)C(O)=C(c1cc(C)ccc1C)C(=O)N2N(C)C` [A5] as the compound, how does the mortality at 200 ppm ([1]; pepper [P] plants sprayed) read?
Answer: ≥ 80%

Question: And the “damage to pepper plants (phytotoxicity)” value (pepper plants)?
Answer: ≤ 10%

Question: `CON1CCC2(CC1)C(=O)C(c1c(C)cc(C)cc1C)C(=O)N2N(C)C` (centres unmarked) [A1, 1-Dimethylamino-8-methoxy-3-(2,4,6-trimethyl-phenyl)-1,8-diaza-spiro[4.5]decane-2,4-dione] was tested. Which mortality at 400 ppm [5] did it give?
Answer: > 80%

Question: What about the mortality at 200 ppm ([1]; pepper [P] plants sprayed) of the same compound?
Answer: ≥ 80%

Question: What about the “damage to pepper plants (phytotoxicity)” value (pepper plants) of the same compound?
Answer: ≤ 10%

Question: And the mortality at 25 ppm [6]?
Answer: > 80%

Question: And the mortality at 400 ppm [7]?
Answer: > 80%

Question: And the mortality at 400 ppm [8]?
Answer: > 80%

Question: What about the mortality at 400 ppm [4] of the same compound?
Answer: > 80%

Question: Which results are given for `CCOC(=O)OC1=C(c2c(C)cc(C)cc2C)C(=O)N(N2CCOCC2)C12CCN(OC)CC2` [B2]?
Answer: mortality at 400 ppm [3]: > 80%; mortality at 200 ppm ([1]; cabbage [C] plants sprayed): ≥ 80%; damage to cabbage plants (phytotoxicity) (cabbage plants): ≤ 10%; mortality at 400 ppm [2]: > 80%

Question: Which results are given for `CCOC(=O)OC1=C(c2cc(C)ccc2C)C(=O)N(N2CCOCC2)C12CCN(OC)CC2` [B6]?
Answer: mortality at 200 ppm ([1]; cabbage [C] plants sprayed): ≥ 80%; damage to cabbage plants (phytotoxicity) (cabbage plants): ≤ 10%; mortality at 400 ppm [2]: > 80%

Question: Which mortality at 400 ppm [4] does the source give for `CON1CCC2(CC1)C(O)=C(c1c(C)cc(Cl)cc1C)C(=O)N2N(C)C` [A3] here?
Answer: > 80%
